Experimental findings from patent US20080200454A1, “CARBON-LINKED TETRAHYDRO-PYRAZOLO-PYRIDINE MODULATORS OF CATHEPSIN S” (priority 2007, published 2008) are described below.

Sequence of Recombinant human cathepsin S (CatS) (P25774 115-331): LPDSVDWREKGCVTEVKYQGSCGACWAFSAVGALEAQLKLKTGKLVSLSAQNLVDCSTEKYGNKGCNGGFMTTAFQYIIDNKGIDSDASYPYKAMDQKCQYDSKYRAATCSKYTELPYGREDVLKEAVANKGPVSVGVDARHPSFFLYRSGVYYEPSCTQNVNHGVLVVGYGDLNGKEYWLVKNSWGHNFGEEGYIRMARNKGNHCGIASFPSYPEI

One assay has as its target Recombinant human cathepsin S (CatS) (Homo sapiens, UniProt P25774). As to the kind of experiment: Recombinant human cathepsin S (CatS) inhibition assay, fluorogenic substrate Z-Valine-Valine-Arginine-AMC.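 Also: Baculovirus-expressed CatS in pH 5.0 sodium acetate buffer with DTT and NaCl, fluorescence read each minute over 20 min, inhibition derived from rate slope.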
Details: not given
In the case of `CC(C)(C)OC(=O)N1CCC(C2CCN(C[C@H](O)Cn3nc(-c4ccc(Cl)c(C#Cc5ccc(Cl)cc5)c4)c4c3CCN(C(N)=O)C4)CC2)CC1` [Example 237, 1,1-Dimethylethyl 1′-{(2S)-3-[5-(aminocarbonyl)-3-{4-chloro-3-[(4-chlorophenyl)ethynyl]phenyl}-4,5,6,7-tetrahydro-1H-pyrazolo[4,3-c]pyridin-1-yl]-2-hydroxypropyl}-4,4′-bipiperidine-1-carboxylate], the IC50 turned out to be 10 nM. Still for that read-out and setting: under `CS(=O)(=O)N1CCc2c(c(-c3ccc(Cl)c(C#Cc4ccc(Cl)cc4)c3)nn2CC(O)CN2CCCC2)C1` (centres unmarked) [Example 129, 1-{3-[4-Chloro-3-(4-chloro-phenylethynyl)-phenyl]-5-methanesulfonyl-4,5,6,7-tetrahydro-pyrazolo[4,3-c]pyridin-1-yl}-3-pyrrolidin-1-yl-propan-2-ol] stands 120 nM. As for `CS(=O)(=O)N1CCc2c(c(-c3ccc(C(F)(F)F)c(C#Cc4ccc(Cl)cc4)c3)nn2CC(O)CN2CCC(N3CCCC3=O)CC2)C1` (centres unmarked) [Example 116, 1-[1-(3-{3-[3-(4-Chloro-phenylethynyl)-4-trifluoromethyl-phenyl]-5-methanesulfonyl-4,5,6,7-tetrahydro-pyrazolo[4,3-c]pyridin-1-yl}-2-hydroxy-propyl)-piperidin-4-yl]-pyrrolidin-2-one], the IC50 came out at 40 nM. The same measure, in the same setting: under `CS(=O)(=O)N1CCc2c(c(-c3ccc(Cl)c(C#CCNS(=O)(=O)c4ccccc4)c3)nn2CCCN2CCOCC2)C1` [Example 54, N-(3-{2-Chloro-5-[5-methanesulfonyl-1-(3-morpholin-4-yl-propyl)-4,5,6,7-tetrahydro-1H-pyrazolo[4,3-c]pyridin-3-yl]-phenyl]-prop-2-ynyl)-benzenesulfonamide] stands 7050 nM. The same measure, in the same setting: the same measure for `CS(=O)(=O)N1CCc2c(c(-c3ccc(Cl)c(C#Cc4cccc(CC(=O)O)c4)c3)nn2CCCN2CCOCC2)C1` [Example 16, (3-{2-Chloro-5-[5-methanesulfonyl-1-(3-morpholin-4-yl-propyl)-4,5,6,7-tetrahydro-1H-pyrazolo[4,3-c]pyridin-3-yl]-phenylethynyl}-phenyl)-acetic acid]: 1150 nM; for `CS(=O)(=O)N1CCc2c(c(-c3ccc(Cl)c(C#Cc4ccc(CNCc5ccccc5)cc4)c3)nn2CCCN2CCOCC2)C1` [Example 74, Benzyl-(4-{2-chloro-5-[5-methanesulfonyl-1-(3-morpholin-4-yl-propyl)-4,5,6,7-tetrahydro-1H-pyrazolo[4,3-c]pyridin-3-yl]-phenylethynyl}-benzyl)-amine]: 430 nM; for `CN1CCN(CCCc2cc(-c3nn(CCCN4CCC(N5CCCC5=O)CC4)c4c3CN(S(C)(=O)=O)CC4)ccc2Cl)CC1` [Example 106, 1-{1-[3-(3-{4-Chloro-3-[3-(4-methyl-piperazin-1-yl)-propyl]-phenyl}-5-methanesulfonyl-4,5,6,7-tetrahydro-pyrazolo[4,3-c]pyridin-1-yl)-propyl]-piperidin-4-yl}-pyrrolidin-2-one]: 4420 nM.

For `NC(=O)C(=O)N1CCc2c(c(-c3ccc(Cl)c(C#Cc4ccc(CNCc5ccc(Cl)cc5)cc4)c3)nn2CCCN2CCSCC2)C1` [Example 414, 2-[3-(4-Chloro-3-{[4-({[(4-chlorophenyl)methyl]amino}methyl)phenyl]ethynyl}phenyl)-1-(3-thiomorpholin-4-ylpropyl)-1,4,6,7-tetrahydro-5H-pyrazolo[4,3-c]pyridin-5-yl]-2-oxoacetamide], the IC50 was determined as 30 nM. Same read-out and setting: under `CS(=O)(=O)N1CCc2c(c(-c3ccc(Cl)c(C#CCCCc4ccccc4)c3)nn2CCCN2CCOCC2)C1` [Example 43, 3-[4-Chloro-3-(5-phenyl-pent-1-ynyl)-phenyl]-5-methanesulfonyl-1-(3-morpholin-4-yl-propyl)-4,5,6,7-tetrahydro-1H-pyrazolo[4,3-c]pyridine] stands 5450 nM.

Staying with this assay, now noted: CatS IC50.
For the molecule `CS(=O)(=O)N1CCc2c(c(-c3ccc(Cl)c(C#Cc4cccc(CN)c4)c3)nn2CCCN2CCOCC2)C1` [Example 377, 1-[3-({2-Chloro-5-[5-(methylsulfonyl)-1-(3-morpholin-4-ylpropyl)-4,5,6,7-tetrahydro-1H-pyrazolo[4,3-c]pyridin-3-yl]phenyl}ethynyl)phenyl]methanamine], the IC50 came out at 470 nM. On the same count and under the same terms, under `CC(C)Oc1ccc(CNCc2ccc(C#Cc3cc(-c4nn(CCCN5CCSCC5)c5c4CN(C(N)=O)CC5)ccc3Cl)cc2)cc1` [Example 174, 3-{4-Chloro-3-[(4-{[({4-[(1-methylethyl)oxy]phenyl}methyl)amino]methyl}phenyl)ethynyl]phenyl}-1-(3-thiomorpholin-4-ylpropyl)-1,4,6,7-tetrahydro-5H-pyrazolo[4,3-c]pyridine-5-carboxamide] stands 270 nM. As to `CS(=O)(=O)N1CCc2c(c(-c3ccc(Cl)c(C#Cc4ccccc4CN)c3)nn2CCCN2CCOCC2)C1` [Example 385, 1-[2-({2-Chloro-5-[5-(methylsulfonyl)-1-(3-morpholin-4-ylpropyl)-4,5,6,7-tetrahydro-1H-pyrazolo[4,3-c]pyridin-3-yl]phenyl}ethynyl)phenyl]methanamine], the IC50 stood at 2720 nM. The same measure, in the same setting: the same measure for `COc1cccc(CNCc2ccc(C#Cc3cc(-c4nn(CCCN5CCSCC5)c5c4CN(C(N)=O)CC5)ccc3Cl)cc2)c1` [Example 534, 3-[4-Chloro-3-({4-[({[3-(methyloxy)phenyl]methyl}amino)methyl]phenyl}ethynyl)phenyl]-1-(3-thiomorpholin-4-ylpropyl)-1,4,6,7-tetrahydro-5H-pyrazolo[4,3-c]pyridine-5-carboxamide]: 90 nM. Still for that read-out and setting: under `COc1ccc(CNCc2ccc(C#Cc3cc(-c4nn(CCCN5CCSCC5)c5c4CN(C(N)=O)CC5)ccc3Cl)cc2)cc1` [Example 538, 3-[4-Chloro-3-({4-[({[4-(methyloxy)phenyl]methyl}amino)methyl]phenyl}ethynyl)phenyl]-1-(3-thiomorpholin-4-ylpropyl)-1,4,6,7-tetrahydro-5H-pyrazolo[4,3-c]pyridine-5-carboxamide] stands 110 nM; under `CS(=O)(=O)N1CCc2c(c(-c3ccc(Cl)c(C#Cc4ccc(CNCc5ccc(Cl)cc5)cc4)c3)nn2CCCN2CC[C@@H](O)C2)C1` [Example 383, (3R)-1-{3-[3-(4-Chloro-3-{[4-({[(4-chlorophenyl)methyl]amino}methyl)phenyl]ethynyl}phenyl)-5-(methylsulfonyl)-4,5,6,7-tetrahydro-1H-pyrazolo[4,3-c]pyridin-1-yl]propyl}pyrrolidin-3-ol], 120 nM; under `NC(=O)C(=O)N1CCc2c(c(-c3ccc(Cl)c(C#Cc4ccc(CNCc5ccc(Cl)cc5)cc4)c3)nn2C[C@H](O)CN2CCSCC2)C1` [Example 250, (R)-2-[3-(4-Chloro-3-{4-[(4-chloro-benzylamino)-methyl]-phenylethynyl}-phenyl)-1-(2-hydroxy-3-thiomorpholin-4-yl-propyl)-1,4,6,7-tetrahydro-pyrazolo[4,3-c]pyridin-5-yl]-2-oxo-acetamide], 80 nM.

The assay is the same for the next values; noted with them: CatS IC50, Table 2; average of results obtained.
For the molecule `Cc1ccccc1C#Cc1cc(-c2nn(CCCN3CCOCC3)c3c2CN(S(C)(=O)=O)CC3)ccc1Cl` [Example 35, 3-(4-Chloro-3-o-tolylethynyl-phenyl)-5-methanesulfonyl-1-(3-morpholin-4-yl-propyl)-4,5,6,7-tetrahydro-1H-pyrazolo[4,3-c]pyridine], the IC50 was 1050 nM.

For orientation: IC50 means the concentration at which inhibition is half-maximal.
